# Laboratory results published in article PMC7961763, “Semi-Synthesis of Harringtonolide Derivatives and Their Antiproliferative Activity” (Molecules, 2021).
# Where two headings read alike, the source gives them in different places.
# Legend:
# [1] = system: HCT-116 (human colon cancer cell line); test: MTT assay, cytotoxicity against HCT-116; assay type: cell-based; conditions: read-out: IC50 HCT-116
# Procedure: (§1) All the synthesized derivatives of HO were tested for their antiproliferative activity against four human cancer cell lines, including the HCT-116, A375, A-549, and Huh-7 cell lines, using the MTT assay. Cisplatin was used as a positive control, while lead compound HO (1) was also included in the study for comparison.
# (§2) HCT-116 (Human colon cancer cell line), A375 (human melanoma cancer cell line), A-549 (human lung adenocarcinoma cell line), Huh-7 (human hepatoma cancer cell line), and L-02 (normal hepatic cell line) were purchased from the Cell Bank of Shanghai Institute of Biochemistry and Cell Biology, Chinese Academy of Sciences (Shanghai, China). The cells were cultured in Dulbecco’s modified Eagle medium (DMEM; NY, USA), which were all supplemented with 10% fetal bovine serum (FBS; NY, USA) at 37 °C with 5% CO2.
# (§3) The cytotoxic activity was evaluated using the MTT assay. Briefly, cells were seeded in 96-well plates at a density of 5 × 10^3 cells/well in 100 μL of DMEM medium at 37 °C for 24 h. Stock solutions of test compounds were prepared in DMSO at concentration of 50 mM, and twofold serial dilution with a culture medium was performed to obtain appropriate concentrations right before the assay. After that, the cells were incubated with synthetic derivatives or cisplatin as a positive control at the various concentrations (0.78125-50 μM) for 48 h. Then, 20 μL of 3-(4,5-Dimethylthiazol-2-yl)-2,5-diphenyltetrazolium bromide (MTT, Aladdin, Shanghai, China) solution (5 mg/mL in PBS) was added, and then the cells were incubated at 37 °C for an additional 4 h. The supernatant was removed, and 150 μL of dimethyl sulfoxide was added to dissolve the MTT formazan. The optical density (OD) was measured on a microplate reader (SpectraMax Plus 384, Molecular Devices, Sunnyvale, CA, USA) at a wavelength of 570 nm. The cytotoxic activity was expressed as the IC50 values. The above tests were repeated three times in parallel. Vehicle DMSO (0.1%) was used as a negative control.
# [2] = system: A375 (human melanoma cancer cell line); test: MTT assay, cytotoxicity against A375; assay type: cell-based; conditions: read-out: IC50 A375
# Procedure: as §1, §2, §3
# [3] = system: A-549 (human lung adenocarcinoma cell line); test: MTT assay, cytotoxicity against A549; assay type: cell-based; conditions: read-out: IC50 A549
# Procedure: as §1, §2, §3
# [4] = system: Huh-7 (human hepatoma cancer cell line); test: MTT assay, cytotoxicity against Huh-7; assay type: cell-based; conditions: read-out: IC50 Huh-7
# Procedure: as §1, §2, §3
# [5] = system: human normal hepatic L-02 cells; test: MTT assay, cytotoxicity on normal L-02 cells; assay type: cell-based; conditions: for IC50: Homo sapiens, read-out: IC50 L-02; for SI (selectivity index): IC50 (L-02)/IC50 (Huh-7)
# Procedure: The selectivity index is crucial for drug development, because it could mediate side effects, including tissues toxicity. Therefore, according to cytotoxic activity results, compounds 6 and 10 with potent cytotoxicity in Huh-7 cells were selected to investigate the selectivity between normal and cancer cells. These two compounds were tested on human normal hepatic L-02 cells with HO as control.
# as §2, §3
# [6] = design: method as in PMID 18523925, PMID 29182349, PMID 31184894; conditions: compared with HO; cited from earlier work
# [7] = L02, MTT, 48 h, normal hepatic L-02 cells
compound,measurement,setting,value
"Cc1cc(=O)cc2c3c1[C@@H]1O[C@H]4[C@@H]5OC(=O)[C@](CC2)([C@@H]4C)[C@H]3[C@@H]51 [HO (1), Harringtonolide]",IC50,"[1]; Homo sapiens, HCT-116, 48 h",0.61 ± 0.03 µM
same,IC50,"[2]; Homo sapiens, A-375, 48 h",1.34 ± 0.23 µM
same,IC50,"[3]; Homo sapiens, A549, 48 h",1.67 ± 0.23 µM
same,IC50,"[4]; Homo sapiens, Huh-7, 48 h",1.25 ± 0.08 µM
same,IC50,"[5]; L02, 48 h",3.46 ± 0.36 µM
same,SI (selectivity index),[5],2.8
CC1=C[C@@H](O)[C@H](O)[C@@]2(O)CCC34C(=O)OC5C6C3C2=C1[C@@H]6O[C@@H]5C4C (some centres unmarked) [fortalpinoid K],cytotoxic activities (result in words),[6],losing of cytotoxic activities
"Cc1cc(=O)cc2c3c1C1OC4C5OC(=O)C(C=C2)(C4C)C3C15 [Compound 6, (3R,4aR,10aS,11S)-5,11-dimethyl-2a,3,4a,10a1-tetrahydro-1H-2,4-dioxa-3,10a methanocyclohepta[bc]cyclopenta[jk]acenaphthylene-1,7(2a1H)-dione]",IC50,"[1]; Homo sapiens, HCT-116, 48 h, MTT, 48 h, HCT-116 cells",0.86 ± 0.05 µM
same,IC50,"[2]; Homo sapiens, A-375, 48 h, MTT, 48 h, A375 cells",4.85 ± 0.42 µM
same,IC50,"[3]; Homo sapiens, A549, 48 h, MTT, 48 h, A549 cells",5.47 ± 0.13 µM
same,IC50,"[4]; Homo sapiens, Huh-7, 48 h, MTT, 48 h, Huh-7 cells",1.19 ± 0.08 µM
same,IC50,[5]; [7],67.2 ± 0.43 µM
same,SI (selectivity index),[5],56.5
same,selectivity index relative to HO,"[5]; SI between Huh-7 and L-02, compared with HO",20 times
"Cc1cc(=O)cc2c3c1C1OC4C5OC(=O)C(CC2O)(C4C)C3C15 [Compound 10, (3R,4aR,9S,10aS,11S)-9-hydroxy-5,11-dimethyl-2a,3,4a,9,10,10a1-hexahydro-1H-2,4-dioxa-3,10a-methanocyclohepta[bc]cyclopenta[jk]acenaphthylene-1,7(2a1H)-dione]",IC50,"[1]; MTT, 48 h, HCT-116 cells",2.29 ± 0.27 µM
same,IC50,"[2]; MTT, 48 h, A375 cells",5.79 ± 1.26 µM
same,IC50,"[3]; MTT, 48 h, A549 cells",8.25 ± 0.2 µM
same,IC50,"[4]; MTT, 48 h, Huh-7 cells",6.34 ± 0.32 µM
same,IC50,[5]; [7],22.3 ± 1.11 µM
same,SI (selectivity index),[5],3.5
